Source: patent publication US6748900B2, “Methods for growing and imprinting fish using an odorant” (MariCal, Inc., priority 2001, dated 2004)
“Also recorded” adds a separate entry of the source.

Assays:
[1] = test system: olfactory epithelium of freshwater adapted juvenile salmon; test: Extracellular electrical potentials (EEG) from olfactory nerve after bolus stimuli to the olfactory epithelium in distilled water; assay type: in vivo, Atlantic salmon (Salmo salar); settings: for concentration dependence of olfactory nerve impulse: exposure of fish olfactory epithelium
Text: The present invention provides methods for identifying and/or quantifying the effects of PVCR modulators on olfactory receptor sensing and visa versa. The present invention also includes methods for determining whether a compound is an odorant. When fish are exposed to an odorant (e.g., the odorant binds to olfactory lamellae), the odorant binds to the olfactory epithelium of the fish, which leads to the generation of a nerve impulse. The electric potential of the impulse can be measured using methods known in the art, or those later developed. One example of a method that can be used to measure electric potential is an electroencephalogram, commonly referred to as an EEG. Example 3 describes in detail how to measure nerve impulse of fish, and in particular, as it relates to modulation of the PVCR in the olfactory apparatus of the fish. Briefly, the fish are anaesthetized and placed in V-clamp apparatus where its gills were irrigated continuously with aerated seawater and its nasal lamellae bathed continuously by a stream of distilled water via a tube held in position in the inhalant olfactory opening. The olfactory nerves of the fish were exposed by removal of overlying bony structures. Odorants to be tested can be delivered as boluses to the olfactory epithelium via a 3 way valve where 1 cc of water containing the stimulus was rapidly injected into the tube containing a continuously stream of distilled water. […] The results can be analyzed by computer using compatible software.
(§1) Physiol. A 127:157-166 (1975), and Hubbard, PC, et al., Olfactory sensitivity to changes in environmental Ca2+ in the marine teleost Sparus Aurata, J. Exp. Biol. 203:3821-3829 (2000). After anaesthetizing the fish, it was placed in V-clamp apparatus where its gills were irrigated continuously with aerated seawater and its nasal lamellae bathed continuously by a stream of distilled water via a tube held in position in the inhalant olfactory opening. The olfactory nerves of the fish were exposed by removal of overlying bony structures. Stimuli were delivered as boluses to the olfactory epithelium via a 3 way valve where 1 cc of water containing the stimulus was rapidly injected into the tube containing a continuously stream of distilled water. […] Using this experimental approach, stable and reproducible recordings could be obtained for up to 6 hr after the initial surgery on the fish.
Similarly, exposure of olfactory epithelium to the PVCR agonist Gd^3+ produces responses of a similar magnitude to those evoked by Ca^2+ in a concentration range of 1-10 micromolar. […] These dose response curves (EC50 Gd^+3≦Ca^2+<Mg^2+) are similar to those obtained for PVCR modulated responses in other fish epithelium (flounder urinary bladder NaCl-mediated water transport-see SKCaR application).

[2] = test system: nasal lamellae of Atlantic salmon; test: Olfactory response to stimuli alone or in combination with 500 mM NaCl (FIGS. 12B-12D); assay type: in vivo, Atlantic salmon (Salmo salar)
Description: Stimuli were delivered to the olfactory epithelium via a glass capillary tube placed in the inhalant olfactory opening. This tube was connected to a gravity fed tubing system allowing for switching from a background perfusion (charcoal filtered freshwater) to an experimental stimulus while maintaining a flow rate of 6-8 ml/min. Verification of the location of the stimulus delivery tubes and electrode was made by observing responses to a ‘search stimulus’ of […].
Stimuli consisted of CaR agonists (CaCl2, MgCl2, GdCl3, SrCl2 and NaCl (Sigma-Aldrich), control freshwater stimulus (charcoal filtered tap water) and control seawater stimuli (ASW, Ca-free ASW, Divalent free ASW). Stimuli were presented alone or in combination with 500 mM NaCl. Ringers and artificial seawater recipes were obtained from the Biological Bulletin Compendia (all concentrations are in mM) ASW (nAcl 423, KCl 9.0, CaCl2 22.94, MgSO4 25.50, NaHCO3 2.14, pH 8.0); Ca-free ASW (NaCl 436.71, KCl 9.0, MgCl2 22.94, MgSO4, 25.5, NaHCO3 2.14, pH 8.0); Divalent free ASW (NaCl 461.85, KCl 10.73, NAHCO3 2.14, Na2SO4 7.04, pH 8.0); FW Teleost Ringer's (NaCl 111.0, KCl 5.37, Cacl2 1.0, MgSO4, 0.6, HEPES 5.0, pH 7.3).

olfactory epithelium = test: Olfactory nerve recording: PVCR agonists added to a repellant (finger rinse) or an attractant (L-alanine); assay type: in vivo, Atlantic salmon (Salmo salar); settings: for effect on response of olfactory epithelium to mammalian finger rinse: FIG. 13
Text: as §1
The ablation of responses to both the PVCR agonists as shown in FIG. 12A as well as mammalian finger rinse indicate that there are some complex interactions between PVCR proteins and other odorant receptors. It is also extremely unlikely that inclusion of PVCR agonists removed all the stimulatory components of mammalian finger rinse from solution such that they were not able to stimulate the epithelium.

[3] = test system: shark kidney calcium receptor (SKCaR); test: FURA-2 ratio imaging fluorescence of HEK cells stably expressing SKCaR; assay type: cell-based, dogfish (Squalus acanthias); settings: 10 mM amino acid; for effect on SKCaR's response to a given Ca^2+ concentration: FIG. 16
Description: Full length recombinant dogfish (Squalus acanthias) shark kidney calcium receptor (SKCaR) was expressed in human embryonic kidney cells using methods described herein. The ability of SKCaR to respond to individual amino acids as well as various mixtures was quantified using FURA-2 ratio imaging fluorescence.
Baseline extracellular Ca^2+ concentration was 0.5 mM. Aliquots of Ca^2+ were added to produce final extracellular concentrations of 2.5 mM, 5 mM, 7.5 mM, 10 mM and 20 mM Ca^2+ with changes in the fluorescence recorded. Note that increases in cell fluorescence were greater in the presence of 10 mM Phe for extracellular Ca^2+ concentrations less than 10 mM.

[4] = 1 mM agonist with 500 mM NaCl, FIG. 12D
[5] = 500 micromolar stimulus, FIG. 11

Compound: [Ca+2] [Ca^2+, calcium]
- olfactory nerve response (EEG activity) ([1]; 1 mM stimulus, FIG. 11): responses in EEG activity
- olfactory nerve response (EEG activity) ([1]; 1 mM stimulus, FIG. 11, listed as calcium): existence of an olfactory recording
- EC50 ([1]; FIG. 12A, responses normalized to 10 mM Ca^2+, multiple fish, read-out: half maximal excitatory response (EC50)): 1 to 10 µM
- concentration dependence of olfactory nerve impulse [1]: concentration-dependent olfactory nerve impulse
- effect on olfactory response to 500 mM NaCl [2, 4]: significantly reduce the olfactory response
- olfactory response in a 500 mM NaCl solution ([2]; 10 mM in 500 mM NaCl, FIG. 12C): identical to that produced by artificial seawater (ASW) exposure
- effect on olfactory response produced by 500 mM NaCl ([2]; FIG. 12C, various concentrations in 500 mM NaCl): reduces the olfactory response
- effect on olfactory nerve response to 500 micromolar L-alanine (olfactory epithelium; 5 mM added, FIG. 14 recording #2): complete loss of the corresponding response
- effect on response of olfactory epithelium to mammalian finger rinse (olfactory epithelium; 5 mM agonist included): reversibly ablated the response
- response to subsequent identical L-alanine stimulus without the agonist (olfactory epithelium; after 5 mM, FIG. 14 recording #3): return of the signal

Compound: [Gd+3] [Gd^3+, gadolinium]
- olfactory nerve response ([1]; 50 micromolar stimulus, FIG. 11, listed as Gadolinium): existence of an olfactory recording
- olfactory nerve response ([1]; 50 micromolar stimulus, FIG. 11, listed as gadolinium): obtained a response
- concentration range producing responses of a similar magnitude to those evoked by Ca^2+ ([1]; FIG. 12A): 1 to 10 µM
- concentration dependence of olfactory nerve impulse [1]: concentration-dependent olfactory nerve impulse
- effect on olfactory response to 500 mM NaCl ([2]; 50 micromolar agonist with 500 mM NaCl, FIG. 12D): significantly reduce the olfactory response
- effect on olfactory nerve response to 500 micromolar L-alanine (olfactory epithelium; 50 micromolar added, FIG. 14 recording #7): complete loss of the corresponding response
- effect on response of olfactory epithelium to mammalian finger rinse (olfactory epithelium; 50 micromolar agonist included): reversibly ablated the response
- effect on response of olfactory epithelium to mammalian finger rinse (olfactory epithelium; 50 micromolar agonist included, listed as gadolinium): reversibly altered
- response to subsequent identical L-alanine stimulus without the agonist (olfactory epithelium; after 50 micromolar, FIG. 14 recording #8 vs #6): return of the signal; also recorded: decreased as compared to control

Compound: CC[C@H](C)[C@H](N)C(=O)O [Ile, L-Isoleucine]
- effect on SKCaR's response to a given Ca^2+ concentration [3]: increase SKCaR's response

Compound: C[C@H](N)C(=O)O [L-alanine]
- duration of olfactory nerve response [1, 5]: approximately 2 seconds
- olfactory nerve response [1, 5]: large increases in both the firing frequency and amplitude; also recorded: existence of an olfactory recording

Compound: [Mg+2] [Mg^2+, magnesium]
- concentration at which olfactory epithelium responses first occur ([1]; FIG. 12A): 10 to 100 µM
- concentration dependence of olfactory nerve impulse [1]: concentration-dependent olfactory nerve impulse
- effect on olfactory response to 500 mM NaCl [2, 4]: significantly reduce the olfactory response

Compound: [Cl-].[Na+] [NaCl, sodium chloride]
- olfactory nerve response (EEG activity) ([1]; 250 mM stimulus, FIG. 11): responses in EEG activity; also recorded: existence of an olfactory recording
- concentration until which olfactory epithelium is unresponsive ([1]; FIG. 12A): 250 millimolar
- olfactory response to irrigation of the nasal lamellae ([2]; 500 mM alone, FIG. 12D): large response
- response to subsequent L-Alanine alone (olfactory epithelium; after 250 mM, FIG. 14 recordings #5 and #10): enhanced response to L-Alanine alone

Compound: N[C@@H](Cc1ccccc1)C(=O)O [Phe, L-Phenylalanine]
- effect on SKCaR's response to a given Ca^2+ concentration [3]: increase SKCaR's response
- increases in cell fluorescence on addition of extracellular Ca^2+ ([3]; extracellular Ca^2+ less than 10 mM, FIG. 15): greater

Compound: [Sr+2] [Sr2+, strontium]
- effect on olfactory response to 500 mM NaCl [2, 4]: significantly reduce the olfactory response

Compound: neomycin
- concentration dependence of olfactory nerve impulse [1]: concentration-dependent olfactory nerve impulse
